The values that follow are results of earlier work, collected in patent US11685721B2, “Human plasma kallikrein inhibitors” (BioCryst Pharmaceuticals, Inc., priority 2014, dated 2023).

For the data set, the system named is patients with hereditary angioedema (HAE).

Turning to `NC(N)=NCCC[C@@H](N)C(=O)N[C@@H](CCCN=C(N)N)C(=O)N1CCC[C@H]1C(=O)N1C[C@H](O)C[C@H]1C(=O)NCC(=O)N[C@@H](Cc1cccs1)C(=O)N[C@@H](CO)C(=O)N1Cc2ccccc2C[C@@H]1C(=O)N1[C@H](C(=O)N[C@@H](CCCN=C(N)N)C(=O)O)C[C@@H]2CCCC[C@@H]21` [Icatibant], the “treating HAE” value (hereditary angioedema) is listed as “effective”.

In the case of ecallantide [DX-88], where the note is “patients with hereditary angioedema (HAE)”, the edema entry is “alleviates edema”.
